Read-outs that look alike come from different tables or passages of the source.
Assays:
[1] = tested on: cells; assay: Boyden chamber migration assay (Table VI); type: cell-based; settings: Hs578T cells, 16 h migration
Method in brief: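 20000 cells seeded in the upper compartment in 0% FCS plus 0.1% BSA and left 16 h to migrate through […] membrane toward 10% FCS medium below. Non-migrated cells swabbed off; cells on the filter underside fixed and counted.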

[2] = tested on: viable cells in culture; assay: Cell viability assay at 10 μM (CellTiter-Glo, Table VII); type: cell-based; settings: compound 10 μM, 72 h;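 note: graded A 0-20%; B 21-40%; C 41-60%; D over 60% viable cells relative to DMSO control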
Method in brief: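 Viable cell number was measured with the CellTiter-Glo Luminescent Cell Viability Assay (Promega), following the manufacturer's protocol, which quantifies ATP as a marker of metabolically active cells. In 96-well plates, 1000 cells/well in 100 μl medium were exposed to compound at 10 μM, or to DMSO control, for 72 h. Values were calculated relative to DMSO-control ATP.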

[3] = Homo sapiens, HCT-116, HCT116 def, read-out: percentage (%) of viable cells HCT 116def
[4] = Homo sapiens, HCT-116, HCT116 wt, read-out: percentage (%) of viable cells HCT 116wt
[5] = Homo sapiens, HT-29, HT29, read-out: percentage (%) of viable cells HT29
[6] = Homo sapiens, NCI-H358, H358, read-out: percentage (%) of viable cells H358
[7] = Homo sapiens, NCI-H1650, H1650, read-out: percentage (%) of viable cells H1650
[8] = Homo sapiens, NCI-H1666, H1666, read-out: percentage (%) of viable cells H1666
[9] = Homo sapiens, NCI-H1975, H1975, read-out: percentage (%) of viable cells H1975
[10] = Homo sapiens, NCI-H1993, H1993, read-out: percentage (%) of viable cells H1993
[11] = Homo sapiens, A549, read-out: percentage (%) of viable cells A549
[12] = Homo sapiens, HCC827, read-out: percentage (%) of viable cells HCC827
[13] = Homo sapiens, SW480, read-out: percentage (%) of viable cells SW480
[14] = RKO, read-out: percentage (%) of viable cells RKO

Row | Compound | IC50 ([1]; Homo sapiens, Hs-578T, 16 h) [µM] | IC50 [1] [µM] | viability at 10 µM [2, 3] [%] | viability at 10 µM [2, 4] [%] | viability at 10 µM [2, 5] [%] | viability at 10 µM [2, 6] [%] | viability at 10 µM [2, 7] [%] | viability at 10 µM [2, 8] [%] | viability at 10 µM [2, 9] [%] | viability at 10 µM [2, 10] [%] | viability at 10 µM [2, 11] [%] | viability at 10 µM [2, 12] [%] | viability at 10 µM [2, 13] [%] | viability at 10 µM [2, 14] [%]
1 | COc1cc2c(Oc3ccc(NS(=O)(=O)c4ccccc4C(F)(F)F)cc3F)ccnc2cc1OCC(=O)N(C)C [Example 93, 2-{4-[2-Fluoro-4-(2-trifluoromethyl-benzenesulfonylamino)-phenoxy]-6-methoxy-quinolin-7-yloxy}-N,N-dimethyl-acetamide] | 5 to 50 | ≤ 5 | 21 to 40 | > 60 | 0 to 20 | 0 to 20 | 21 to 40 | 21 to 40 | 0 to 20 | 21 to 40 | > 60 | 21 to 40 | 0 to 20 | 0 to 20
2 | COc1cc2c(Oc3ccc(NS(=O)(=O)c4ccc(F)c(C#N)c4)cc3F)ccnc2cc1OCCCN1CCCC(C)C1 (stereo not drawn) [Example 72, 3-Cyano-4-fluoro-N-(3-fluoro-4-{6-methoxy-7-[3-(3-methyl-piperidin-1-yl)-propoxy]-quinolin-4-yloxy}-phenyl)-benzenesulfonamide] | ≤ 5 |  | 41 to 60 | 21 to 40 | 0 to 20 | 21 to 40 | 41 to 60 | 21 to 40 | 41 to 60 | 0 to 20 | > 60 | 41 to 60 | 0 to 20 | 0 to 20
3 | COc1cc2c(Oc3ccc(NS(=O)(=O)c4ccccc4OC(F)(F)F)cc3F)ccnc2cc1OCCCN1CCN(C)CC1 [Example 25, N-(3-Fluoro-4-{6-methoxy-7-[3-(4-methyl-piperazin-1-yl)-propoxy]-quinolin-4-yloxy}-phenyl)-2-trifluoromethoxy-benzenesulfonamide] | ≤ 5 |  |  |  |  |  |  |  |  |  |  |  |  | 
4 | COc1cc2c(Oc3ccc(NS(=O)(=O)c4ccccc4C(F)(F)F)cc3F)ccnc2cc1OCCCNC1CCOCC1 [Example 95, N-(3-Fluoro-4-{6-methoxy-7-[3-(tetrahydro-pyran-4-ylamino)-propoxy]-quinolin-4-yloxy}-phenyl)-2-trifluoromethyl-benzenesulfonamide] | ≤ 5 |  | 21 to 40 | 21 to 40 | 0 to 20 | 0 to 20 | 21 to 40 | 21 to 40 | 0 to 20 | 0 to 20 | > 60 | 21 to 40 | 0 to 20 | 0 to 20
5 | COc1cc2c(Oc3ccc(NS(=O)(=O)c4ccccc4Cl)cc3F)ccnc2cc1OCCCN1CCN(C)CC1 [Example 29, 2-Chloro-N-(3-fluoro-4-{6-methoxy-7-[3-(4-methyl-piperazin-1-yl)-propoxy]-quinolin-4-yloxy}-phenyl)-benzenesulfonamide] | ≤ 5 |  | 0 to 20 | 0 to 20 | 0 to 20 | 21 to 40 | 21 to 40 | 41 to 60 | 0 to 20 | 0 to 20 | 41 to 60 | 21 to 40 | 0 to 20 | 0 to 20
6 | COc1cc2c(Oc3ccc(NS(=O)(=O)c4ccccc4[N+](=O)[O-])cc3F)ccnc2cc1OCCCN1CCN(C)CC1 [Example 21, N-(3-Fluoro-4-{6-methoxy-7-[3-(4-methyl-piperazin-1-yl)-propoxy]-quinolin-4-yloxy}-phenyl)-2-nitro-benzenesulfonamide] | ≤ 5 |  | 41 to 60 | > 60 | 21 to 40 | 21 to 40 | 41 to 60 | 41 to 60 | 41 to 60 | 21 to 40 | > 60 | > 60 | 21 to 40 | 41 to 60
7 | COc1cc2c(Oc3ccc(NS(=O)(=O)c4cc(Cl)cc(Cl)c4OC)cc3F)ccnc2cc1OCCCN1CCN(C)CC1 [Example 35, 3,5-Dichloro-N-(3-fluoro-4-{6-methoxy-7-[3-(4-methyl-piperazin-1-yl)-propoxy]-quinolin-4-yloxy}-phenyl)-2-methoxy-benzenesulfonamide] | ≤ 5 |  | 21 to 40 | 0 to 20 | 0 to 20 | 0 to 20 | 21 to 40 | 21 to 40 | 0 to 20 | 21 to 40 | > 60 | 41 to 60 | 0 to 20 | 41 to 60
8 | COc1cc2c(Oc3ccc(NS(=O)(=O)c4cccc(C#N)c4)cc3F)ccnc2cc1OCCCN1CCCC(C)C1 (stereo not drawn) [Example 41, 3-Cyano-N-(3-fluoro-4-{6-methoxy-7-[3-(3-methyl-piperidin-1-yl)-propoxy]-quinolin-4-yloxy}-phenyl)-benzenesulfonamide] | ≤ 5 |  | 0 to 20 | 41 to 60 | 21 to 40 | 0 to 20 | 41 to 60 | 21 to 40 | 0 to 20 | 21 to 40 | 21 to 40 | 41 to 60 | 0 to 20 | 0 to 20
9 | COc1cc2c(Oc3ccc(NS(=O)(=O)c4ccccc4OC)cc3F)ccnc2cc1OCCCN1CCN(C)CC1 [Example 33, N-(3-Fluoro-4-{6-methoxy-7-[3-(4-methyl-piperazin-1-yl)-propoxy]-quinolin-4-yloxy}-phenyl)-2-methoxy-benzenesulfonamide] | ≤ 5 |  | 21 to 40 | 0 to 20 | 0 to 20 | 21 to 40 | > 60 | 21 to 40 | 21 to 40 | 0 to 20 | 41 to 60 | 21 to 40 | 0 to 20 | 0 to 20
10 | COc1cc2c(Oc3ccc(NS(=O)(=O)c4cccc(C)c4)cc3F)ccnc2cc1OCCCN1CCCC(C)C1 (stereo not drawn) [Example 70, N-(3-Fluoro-4-{6-methoxy-7-[3-(3-methyl-piperidin-1-yl)-propoxy]-quinolin-4-yloxy}-phenyl)-3-methyl-benzenesulfonamide] | ≤ 5 |  | 21 to 40 | 41 to 60 | 21 to 40 | 21 to 40 | 41 to 60 | 21 to 40 | 0 to 20 | 0 to 20 | 21 to 40 | 21 to 40 | 21 to 40 | 0 to 20
11 | COc1cc2c(Oc3ccc(NS(=O)(=O)c4c(Cl)cccc4Cl)cc3F)ccnc2cc1OCCCN1CCN(C)CC1 [Example 32, 2,6-Dichloro-N-(3-fluoro-4-{6-methoxy-7-[3-(4-methyl-piperazin-1-yl)-propoxy]-quinolin-4-yloxy}-phenyl)-benzenesulfonamide] | ≤ 5 |  | 21 to 40 | 0 to 20 | 0 to 20 | 0 to 20 | 21 to 40 | 41 to 60 | 21 to 40 | 0 to 20 | 41 to 60 | 41 to 60 | 21 to 40 | 21 to 40

Source: patent US9169241B2, “Quinolinyloxyphenylsulfonamides” (Max-Planck-Gesellschaft Zur Forderung der Wissenschaften …, priority 2009, dated 2015)
